This note sets out measurements from ChEMBL document CHEMBL3739291, “3-AminooxazolidinoneAHL analogs as hydrolytically-stable quorum sensingagonists in Gram-negative bacteria” (Medchemcomm, 2015).

SMILES strings stand for the structures. Activity calls are given as the source filed them. No cut-off for these calls is given here.

Data set [1] in a line: Agonist activity at Escherichia coli JM109 LasR assessed as induction of bioluminescence after 8 hrs by luminometric analysis.
Data set [2] has as its target T1, CviR transcriptional regulator (Chromobacterium violaceum) (UniProt D3W065).
T1 sequence (whole entry): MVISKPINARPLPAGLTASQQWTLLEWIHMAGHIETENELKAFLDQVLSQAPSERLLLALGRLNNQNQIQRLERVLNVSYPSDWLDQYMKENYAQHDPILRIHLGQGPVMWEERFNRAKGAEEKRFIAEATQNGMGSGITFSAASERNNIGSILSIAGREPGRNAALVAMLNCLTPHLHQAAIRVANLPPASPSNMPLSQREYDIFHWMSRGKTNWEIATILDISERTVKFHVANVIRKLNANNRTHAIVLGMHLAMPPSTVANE
Kind of data set: Antagonist activity at Chromobacterium violaceum CV026 CviR assessed as inhibition of C4-HSL-induced violacein production at 2 uM preincubated at 32 degC for day 1 followed by further incubation at 25 degC on day 2 by agar plate assay.

The nature of data set [3]: Stability in 180 mM Tris-HCl buffer at pH 8 measured for 3 hrs by HPLC analysis. The data set is classed as physicochemical. The settings on record: pH 8, 3 h.
Data set [4] addresses T1, CviR transcriptional regulator (Chromobacterium violaceum). Kind of data set: Agonist activity at Chromobacterium violaceum CV026 CviR assessed as production of violacein at 20 uM preincubated at 32 degC for day 1 followed by further incubation at 25 degC on day 2 by agar plate assay.
Data set [5] shares this target. Briefly: Antagonist activity at Chromobacterium violaceum CV026 CviR assessed as inhibition of C4-HSL-induced violacein production preincubated at 32 degC for day 1 followed by further incubation at 25 degC on day 2 by agar plate assay.

Take `CCCCCCCCCC(=O)CC(=O)N[C@H]1CCOC1=O`: the concentration giving a half-maximal response (EC50) in data set [1] was found to be 1.5 nM. For the same compound, the inhibition entry in data set [2] is “Active”. For the same compound, the Stability result in data set [3] is reported as “Stable”.

As for `CCCC(=O)N[C@H]1CCOC1=O`, the outcome in data set [4] was Active.

In the case of `CCCC(=O)NN1CCOC1=O`, the result in data set [4] was Active.

For the compound `CCCCCCCCCC(=O)CC(=O)NN1CCOC1=O`, the EC50 in data set [1] was found to be 2.1 nM. Also, the inhibition result in data set [5] is “Active”. Further, the Stability entry in data set [3] was “Stable”.
